2 substances from patent US8173606B2, “Sulfated oligosaccharide derivatives” (Progen Pharmaceuticals Limited, priority 2004, dated 2012) can be followed below.

For this assay, the target named is FGF-1 (Homo sapiens, UniProt P05230). Kind of assay: SPR based solution affinity assay, growth factor binding (FGF-1). The settings on record: heparin-coated sensorchip, HBS-EP buffer, 25° C.; read-out: Kd aFGF. As to the method:
Binding affinities of ligands for the growth factors FGF-1, FGF-2 and VEGF were measured using a surface plasmon resonance (SPR) based solution affinity assay. The principle of the assay is that heparin immobilised on a sensorchip surface distinguishes between free and bound growth factor in an equilibrated solution of the growth factor and a ligand. Upon injection of the solution, the free growth factor binds to the immobilised heparin, is detected as an increase in the SPR response and its concentration thus determined. A decrease in the free growth factor concentration as a function of the ligand concentration allows for the calculation of the dissociation constant, Kd. It is important to note that ligand binding to the growth factors can only be detected when the interaction involves the HS binding site, thus eliminating the chance of evaluating non-specific binding to other sites on the protein. A 1:1 stoichiometry has been assumed for all protein:ligand interactions.
For the testing of growth factor binding activity, heparin-coated sensorchips were used. Their preparation, via immobilisation of biotinylated BSA-heparin on a streptavidin-coated sensorchip, has been described.[5] Heparin has also been immobilised via aldehyde coupling using either adipic acid dihydrazide or 1,4-diaminobutane. […] Ligands binding to FGF-1 and VEGF were measured in HBS-EP buffer (10 mM HEPES, pH 7.4, 150 mM NaCl, 3.0 mM EDTA and 0.005% (v/v) polysorbate 20), while binding to FGF-2 was measured in HBS-EP buffer containing 0.3 M NaCl.[5] […] For each assay mixture, 50-200 μL of solution was injected at 5-40 μL/min and the relative binding response measured. […]
Sensorgram data were analysed using the BIAevaluation software (BIAcore). […]
[formula] and the binding equation[5] can be expressed as
The Kd values given are the values fit, using the binding equation, to a plot of [P] versus [L]total. Where Kd values were measured in duplicate, the values represent the average of the duplicate measurements. […]

Sequence of FGF-1 (P05230 whole entry, species assumed): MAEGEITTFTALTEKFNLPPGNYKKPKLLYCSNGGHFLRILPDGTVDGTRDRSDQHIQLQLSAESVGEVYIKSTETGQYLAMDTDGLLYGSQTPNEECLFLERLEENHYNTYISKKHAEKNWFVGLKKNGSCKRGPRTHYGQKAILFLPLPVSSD

For the substance Benzyl Glycoside Polysulfate [PG500], the Kd was 0.12 ± 0.025 nM. As to Octyl Glycoside Polysulfate [PG501], the Kd turned out to be 0.144 ± 0.008 nM.
